Usually pIC50 stands for the negative decadic logarithm of the IC50, by convention in mol/L. A lower pIC50 goes with a high IC50.

pIC50: −log10 of the molar value.

The first assay has as its system Human Jurkat T-cells (clone N). The experiment in a line: Jurkat T-cell activation (anti-TCR, CD69 upregulation). The assay is classed as cell-based.
Conditions: not given
The method, then:
The screening process took place over three days.
On the first day of the screen, cultured cells were spun down on a centrifuge (1000 rpm, 5 minutes) and resuspended at 3.0×10^5 cells/ml in RPMI+5% FBS. On the second day of the screen, cells were spun down at 1000 rpm for 5 minutes and resuspended in RPMI+5% FBS at 1.3×10^5 cells/ml. 85 μl of this cell suspension were added to the wells of U-bottom 96 well plates (Corning) 85 μl of compound or diluted RPMI+5% FBS (as a control) only was added to each well and incubated at 37° C. for 1 hour. The cells were then stimulated with anti-TCR (C305) at: 500 ng/ml by adding a 8× solution in 25 μl to the plated cells. The cells were then incubated at 37° C. for 20 hrs.
On the third day of the screen, the plates were spun at 2500 RPM for 1 minute on a Beckman GS-6R centrifuge, and the medium was then removed. 50 μl staining solution (1:100 dilution of anti-CD69-APC antibody (Becton Dickenson) in PBS+2% FBS) was then added to each well, followed by incubation of the plates 4 degrees for 20 minutes in the dark. 150 μl of wash buffer (PBS+2% FBS) was then added to each well, and the plates were spun at 3000 RPM for 1 minute. The supernatant was again removed, and the pellet was resuspended by vortexing gently. 75 μl of PBS+2% FBS +Cytofix (1:4 dilution) was then added, the plates gently vortexed and wrap in aluminum foil. Cells from the plates were read using a flow cytometer coupled to an automated liquid handling system.
Varied concentrations of compound were compared to solvent only to determine the inhibition of T-cell activation IC50 of each compound.
Turning to `CCOC(=O)c1cnc(Nc2cccc(O)c2)nc1N[C@@H](Cc1ccccc1)C(=O)OCC` [Compound R926528], the negative logarithm of the IC50 (pIC50) was below 5.00.
Still for that read-out and setting: the result for `CCOC(=O)CNc1nc(Nc2ccc(OCC(=O)OCC)cc2)nc(C(=O)OCC)c1[N+](=O)[O-]` [Compound R925858] reads below 5.00.
On to `O=C(NCCNCc1ccccc1)c1cc2cc(Nc3ncc(F)c(Nc4ccc5oc(C(=O)NCCNCc6ccccc6)cc5c4)n3)ccc2o1` [Compound R950169], for which the pIC50 was below 5.00.
`CNC(=O)COc1cccc(Nc2nc(Nc3cc(OC)cc(OC)c3)ncc2F)c1` [Compound R926810] showed a negative logarithm of the IC50 (pIC50) of 5.30.
`Cn1ncc2cc(Nc3ncc(F)c(Nc4ccc5c(c4)NC(=O)C(C)(C)O5)n3)ccc21` [Compound R940338]: the negative logarithm of the IC50 (pIC50) is 6.15.
On the same count and under the same terms, with `CNC(=O)COc1cccc(Nc2ncc(F)c(Nc3ccc(C(F)(F)F)cc3)n2)c1` [Compound R926880] the figure was 5.20; with `COc1ccc(Nc2ncc(C)c(Nc3ccc(OC)c(-c4ccccc4)c3)n2)cc1-c1ccccc1` [Compound R935002], below 5.00; with `O=C(CNc1cccc(Nc2ncc(F)c(Nc3ccc4c(c3)OCCO4)n2)c1)N(CCO)CCO` [Compound R950199], 5.49.
On to `Cc1noc(COc2ccc(Nc3nc(Nc4cccc(O)c4)ncc3F)cc2)n1` [Compound R935147], for which the pIC50 was 5.70.
As to `Cc1ccc(-c2ccccc2)cc1Nc1ncc(C)c(Nc2cc(-c3ccccc3)ccc2C)n1` [Compound R935001], the pIC50 was below 5.00.
On to `CNC(=O)Cn1ncc2ccc(Nc3nc(Nc4ccc(OC(C)C)cc4)ncc3F)cc21` [Compound R935224], for which the pIC50 was below 5.00.
Molecule `Nc1ccc(Nc2ncc(F)c(Nc3ccc(N)cc3)n2)cc1` [Compound R950121] gave a negative logarithm of the IC50 (pIC50) of 5.20.
In turn, `CCOC(=O)COc1cccc(Nc2ncc(F)c(Nc3ccc(O)c(C(=O)OC)c3)n2)c1` [Compound R950293] gave a negative-log IC50 (pIC50) below 5.00.
Same read-out and setting: with `O=C(CNc1cccc(Nc2ncc(F)c(Nc3cccc(NCCO)c3)n2)c1)NCCN1CCOCC1` [Compound R950239] the figure was below 5.00; with `CC(C)(C)OC(=O)COc1ccc(Nc2nc(Cl)c(Cl)c(Nc3ccc(OCC(=O)OC(C)(C)C)cc3)n2)cc1` [Compound R926576], below 5.00; with `NC(=O)CNc1cccc(Nc2ncc(F)c(Nc3ccc4c(c3)OCCO4)n2)c1` [Compound R950192], 5.76.
Same read-out and setting: with `Cn1nnc(COc2ccc(Nc3nc(Nc4ccc(OCc5nnnn5C)cc4)ncc3F)cc2)n1` [Compound R945047] the figure was 5.49.
`CNC(=O)COc1cccc(Nc2ncc(F)c(Nc3ccc(C#N)c(C)c3)n2)c1` [Compound R926851] gave a negative-log IC50 (pIC50) of 5.51.
Same read-out and setting: with `Oc1cccc(Nc2ncc(F)c(Nc3ccc4cn[nH]c4c3)n2)c1` [Compound R935262] the figure was 5.51.
Same read-out and setting: the result for `Fc1cnc(Nc2cccc(C(F)(F)F)c2)nc1Nc1ccc2c(c1)OCCO2` [Compound R926805] reads below 5.00.
Take `CNC(=O)COc1cccc(Nc2nc(Nc3ccc4c(c3)OCCO4)ncc2F)c1` [Compound R926776]: the negative logarithm of the IC50 (pIC50) is 4.90.
`OCCCn1ncc2ccc(Nc3ncc(F)c(Nc4cccc(O)c4)n3)cc21` [Compound R935293] showed a negative-log IC50 (pIC50) of 5.87.
The molecule `COC(=O)Cn1ncc2ccc(Nc3nc(Nc4ccc5c(c4)OCCO5)ncc3F)cc21` [Compound R935219] gave a pIC50 of 5.25.
As to `O=C(O)COc1ccc(Nc2ncc(F)c(Nc3cccc(O)c3)n2)cc1` [Compound R926564], the pIC50 was below 5.00.
As for `NC(=O)COc1ccc(Nc2ncc(F)c(Nc3ccc(OCC(N)=O)cc3)n2)cc1` [Compound R945025], the pIC50 was 5.15.
Same read-out and setting: with `O=C1COc2cc(Nc3nc(Nc4cccc(O)c4)ncc3F)ccc2N1` [Compound R908698] the figure was 5.43; with `COC(=O)COc1cccc(Nc2ncc(F)c(Nc3ccc4c(c3)OCCO4)n2)c1` [Compound R945124], 5.21; with `Oc1cccc(Nc2nc(Nc3cc(Br)cc(C(F)(F)F)c3)ncc2F)c1` [Compound R926846], below 5.00.
For the molecule `Cc1cnc(Nc2ccc(OCc3nnn(C)n3)cc2)nc1Nc1cccc(O)c1` [Compound R920893], the pIC50 is 5.85.
Regarding `Fc1cnc(Nc2ccc3c(c2)OCCO3)nc1Nc1ccc(OCc2nc(-c3ccccc3)no2)cc1` [Compound R935140], the pIC50 was 5.67.

The same assay, now with this note: Homo sapiens, Jurkat.
In the case of `OCc1cccc(Nc2nc(Nc3ccc4c(c3)OCCO4)ncc2F)c1` [Compound R925758], the negative-log IC50 (pIC50) is 4.74.
The molecule `Nc1cccc(Nc2ncc(F)c(Nc3cccc(O)c3)n2)c1` [Compound R950227] showed a pIC50 of 5.15. Against the preceding molecule, the pIC50 is 0.41 log units higher.
`COC(=O)c1cc2cc(Nc3ncc(F)c(Nc4cccc(C(C)(C)C)c4)n3)ccc2o1` [Compound R940281] had a pIC50 below 5.00.
`CC(C)c1ccc(Nc2ncc(F)c(Nc3ccc4c(c3)OCCO4)n2)cc1` [Compound R926790] gave a pIC50 below 5.00.
Take `COC(=O)c1cc2cc(Nc3ncc(F)c(Nc4cccc(C(C)C)c4)n3)ccc2o1` [Compound R940283]: the negative-log IC50 (pIC50) is below 5.00.
For `Oc1ccc(Nc2ncc(F)c(Nc3ccc(O)cc3F)n2)c(F)c1` [Compound R926683], the negative logarithm of the IC50 (pIC50) is 5.12.
For `Fc1cc(Nc2ncc(F)c(Nc3ccc4c(c3)OCCO4)n2)cc(C(F)(F)F)c1` [Compound R926894], the pIC50 is below 5.00.
The molecule `CC(C)(C)OC(=O)Nc1cccc(Nc2ncc(F)c(Nc3cccc(NC(=O)OC(C)(C)C)c3)n2)c1` [Compound R950108] gave a pIC50 below 5.00.
Still for that read-out and setting: with `CC(C)Nc1cccc(Nc2ncc(F)c(Nc3cccc(NC(C)C)c3)n2)c1` [Compound R950166] the figure was below 5.00.
On the same count and under the same terms, the result for `COc1ccc(C(Nc2ncc(F)c(NC(c3ccc(OC)cc3)c3ccc(OC)cc3)n2)c2ccc(OC)cc2)cc1` [Compound R935004] reads below 5.00; that for `CNC(=O)c1cccc(Nc2ncc(F)c(Nc3cccc(O)c3)n2)c1` [Compound R926936], 5.10; that for `COc1cccc(Nc2ncc(F)c(Nc3cccc(OC)c3)n2)c1` [Compound R926065], 5.17.
In the case of `Oc1cccc(Nc2ncc(C(F)(F)F)c(Nc3cccc(O)c3)n2)c1` [Compound R925863], the pIC50 is 5.53.
Same read-out and setting: with `CCOC(=O)c1cnc(Nc2ccc(CC#N)cc2)nc1Nc1ccc(CC#N)cc1` [Compound R926319] the figure was 4.81; with `Fc1cnc(Nc2ccc3c(c2)OCCO3)nc1Nc1ccc(N2CCN(Cc3ccccc3)CC2)cc1` [Compound R945155], 5.15; with `Nc1c(F)ccc(Nc2ncc(F)c(Nc3ccc(F)c(N)c3F)n2)c1F` [Compound R950138], below 5.00.
On the same count and under the same terms, the result for `Cc1ccc(-c2ccccc2)cc1Nc1ccnc(Nc2cc(-c3ccccc3)ccc2C)n1` [Compound R925807] reads below 5.00; that for `O=C(NCCO)c1cc2cc(Nc3ncc(F)c(Nc4ccc5c(c4)OCCO5)n3)ccc2o1` [Compound R926498], 5.24; that for `Oc1cccc(Nc2nc(NCc3cccnc3)ncc2F)c1` [Compound R945165], below 5.00.
On to `COc1cc(-c2ccccc2)c(C)cc1Nc1ncc(Br)c(Nc2cc(C)c(-c3ccccc3)cc2OC)n1` [Compound R925801], for which the pIC50 was below 5.00.
`Nc1c(F)ccc(Nc2ccnc(Nc3ccc(F)c(N)c3F)n2)c1F` [Compound R950131] had a negative logarithm of the IC50 (pIC50) below 5.00.

These data come from patent publication US8158621B2, “Methods of treating or preventing autoimmune diseases with 2,4-pyrimidinediamine compounds” (Rigel Pharmaceuticals, Inc., priority 2002, dated 2012).
